From publication PMC3866116 (PLoS ONE, 2013)

Tests used:
[1] = system: HCV subgenomic replicon RNA of genotype 1b strain N (Huh7/Rep-Feo cells); experiment: Luciferase assay in HCV subgenomic replicon cell line Huh7/Rep-Feo; type: cell-based, hepatitis C virus
Description: The Huh7/Rep-Feo cell line, which harbors the subgenomic replicon RNA composed of HCV IRES, the gene of the fusion protein consisting of neomycin phosphotransferase and firefly luciferase, EMCV IRES and a nonstructural gene of genotype 1b strain N in order in Huh7 cell line, was previously established. Thus, the luciferase activity corresponds to the level of HCV RNA replication. The cell line was maintained in Dulbecco's modified Eagle medium containing 10% fetal calf serum and 0.5 mg/mL G418 and cultured in absence of G418 when they were treated with compounds. The Lunet/Con1LUN Sb #26 cell line, which harbors the subgenomic replicon RNA of the Con1 strain (genotype 1b), was described previously. The OR6 cell line, which harbors the full genomic replicon RNA of the O strain (genotype 1b), was described previously. The HCV replicon cell line derived from the genotype 2a strain JFH1 was described previously. The viral RNA derived from the plasmid pJFH1 was transcribed and introduced into Huh7OK1 cells according to the method of Wakita et al.. The virus was amplified by the several times passages. The cells were infected with the virus at a multiplicity of infection (moi) of 1 and then treated with each compound at 24 h post-infection. The culture supernatants were harvested 72 h post-treatment to estimate the viral RNA as described below.
The replicon cells were seeded at 2×10^4 cells per well in a 48-well plate 24 h before treatment. […] The resulting cells were harvested 72 h post-treatment and lysed with cell culture lysis reagent (Promega, Madison, WI). The luciferase activity of each cell lysate was estimated using a luciferase assay system (Promega). The resulting luminescence was detected by a Luminescencer-JNR AB-2100 (ATTO, Tokyo, Japan).

[2] = Cytotoxicity (MTS assay) in Huh7/Rep-Feo replicon cells; type: cell-based; settings: human, Huh7/Rep-Feo cells, MTS, read-out: CC50, fifty percent cytotoxicity concentration based on the reduction in cell viability
Description: (§1) The replicon cells were seeded at a density of 1×10^4 cells per well in a 96-well plate and then incubated at 37°C for 24 h. […] Cell viability was measured using a dimethylthiazol carboxymethoxy-phenylsulfophenyl tetrazolium (MTS) assay with a CellTiter 96 aqueous one-solution cell proliferation assay kit (Promega).

Huh7/Rep-Feo cells = experiment: as above; type: cell-based; settings: Huh7/Rep-Feo, 1.3 to 40 µM, 72 h
Description: as §1

ISRE-promoter activity = experiment: ISRE reporter assay in Huh7 OK1 cells; type: cell-based; settings: 48 h of treatment, interferon alpha 2b as positive control
[3] = system: ISGs (Mx1, MxA, IFIT4, ISG15, OAS1, OAS2, OAS3); experiment: RT-PCR of interferon stimulated genes in replicon cells; type: cell-based; settings: replicon cell line of genotype 1b, 48 h, listed as CAPE
Description: Total RNAs were prepared from cells by using the RNAqueous-4PCR kit (Life Technologies, Carlsbad, CA). Viral RNA were prepared from culture supernatants by using the QIAamp Viral RNA mini kit (QIAGEN, Hilden, Germany). The viral RNA genome was estimated by the qRT-PCR method described previously. RT-PCR was carried out by the method described previously which was slightly modified at the PCR step. The PCR samples were incubated once for 10 min at 95°C for an initial activation step of the AmpliTaq Gold DNA Polymerase (Life Technologies), and then subjected to an amplification step of 30 repeats of the cycle consisting of three segments as follow: 0.5 min at 95°C, 1 min at 55°C and 1 min at 72°C. The primers used in this study were as follows: Mx1: 5′-[…]-3′ and 5′-[…]-3′;

HCV NS3 = experiment: Western blotting of NS3 in Huh7/Rep-Feo cells; type: cell-based, hepatitis C virus; settings: Huh7/Rep-Feo cells treated 72 h, dose-dependent
Description: Western blotting was carried out by the method described previously. The antibodies to NS3 (clone 8G-2, mousemonoclonal, Abcam, Cambridge, UK), and beta-actin were purchased from Cell Signaling Technology (rabbit polyclonal, Danvers, MA, USA) and were used as the primary antibodies in this study.

## O=C(/C=C/c1ccc(O)c(O)c1)OCCc1ccccc1 [Compound 1, Caffeic acid phenethyl ester]
[1]; Hepatitis C virus, Huh-7, 72 h, read-out: EC50, fifty percent effective concentration based on the inhibition of HCV replication
  EC50: 9 ± 0.7 µM
[1]; Huh7/Rep-Feo, various concentrations (compound 1: 1.3 to 40 µM), 72 h, dose-dependent
  HCV RNA replication (luciferase activity): suppressed
[2]
  CC50 at 72 h: 136 ± 1.9 µM
Huh7/Rep-Feo cells
  cell viability: did not affect
ISRE-promoter activity
  effect on ISRE-promoter activities: no significant effects
[3]
  transcriptional expressions of ISGs (Mx1, MxA, IFIT4, ISG15, OAS1, OAS2, OAS3) induced: did not induce
HCV NS3
  NS3 protein level: decreased
